Results taken from PMC12340637, “Transport of Small Aliphatic Amines by Polyspecific Solute Carriers: Deciphering Structure–Function Relationships” (ACS Pharmacology & Translational Science, 2025).
Marks after values point to notes of the source that are not given here.

How the values were obtained:
[1] = target: T1, OCT1 (SLC22A1) (Homo sapiens, UniProt O15245); assay: in vitro; details: pH 7.4
T1 sequence (O15245 1-554): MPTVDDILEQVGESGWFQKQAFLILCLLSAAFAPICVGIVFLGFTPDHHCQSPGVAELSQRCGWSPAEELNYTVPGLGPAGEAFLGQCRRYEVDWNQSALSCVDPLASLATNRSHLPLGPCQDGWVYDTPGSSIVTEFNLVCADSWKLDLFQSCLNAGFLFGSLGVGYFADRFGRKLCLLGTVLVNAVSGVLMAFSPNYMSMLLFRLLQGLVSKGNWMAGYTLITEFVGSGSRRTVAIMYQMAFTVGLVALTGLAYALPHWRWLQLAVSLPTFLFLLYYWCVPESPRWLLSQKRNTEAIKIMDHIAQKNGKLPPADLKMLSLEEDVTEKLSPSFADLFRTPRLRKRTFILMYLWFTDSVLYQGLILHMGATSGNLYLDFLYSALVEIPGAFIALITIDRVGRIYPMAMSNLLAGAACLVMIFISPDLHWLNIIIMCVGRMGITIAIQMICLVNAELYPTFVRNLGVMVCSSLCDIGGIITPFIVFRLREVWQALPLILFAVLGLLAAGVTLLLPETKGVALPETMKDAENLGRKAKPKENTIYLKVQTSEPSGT

[2] = target: MATE2-K (SLC47A2) (Homo sapiens, UniProt Q86VL8); assay: in vitro; details: pH 7.4
[3] = target: T2, OCT2 (SLC22A2) (Homo sapiens, UniProt O15244); assay: in vitro; details: pH 7.4
T2 sequence (O15244 1-555): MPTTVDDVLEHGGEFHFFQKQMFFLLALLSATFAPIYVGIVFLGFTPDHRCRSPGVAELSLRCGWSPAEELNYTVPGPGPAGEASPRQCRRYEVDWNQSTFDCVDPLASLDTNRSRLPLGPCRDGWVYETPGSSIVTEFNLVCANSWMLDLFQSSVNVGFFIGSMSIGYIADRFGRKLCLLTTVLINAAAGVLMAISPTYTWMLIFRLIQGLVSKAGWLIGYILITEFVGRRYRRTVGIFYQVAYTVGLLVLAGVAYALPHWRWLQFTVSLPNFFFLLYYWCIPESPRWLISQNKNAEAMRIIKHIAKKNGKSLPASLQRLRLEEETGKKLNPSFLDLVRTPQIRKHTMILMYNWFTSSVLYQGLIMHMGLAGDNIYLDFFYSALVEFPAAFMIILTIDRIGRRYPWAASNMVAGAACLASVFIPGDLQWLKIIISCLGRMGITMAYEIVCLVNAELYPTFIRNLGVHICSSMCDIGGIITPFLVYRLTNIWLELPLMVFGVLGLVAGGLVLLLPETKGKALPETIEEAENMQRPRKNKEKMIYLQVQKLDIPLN

[4] = target: T3, MATE1 (SLC47A1) (Homo sapiens, UniProt Q96FL8); assay: in vitro; details: pH 7.4
T3 sequence (Q96FL8 1-570): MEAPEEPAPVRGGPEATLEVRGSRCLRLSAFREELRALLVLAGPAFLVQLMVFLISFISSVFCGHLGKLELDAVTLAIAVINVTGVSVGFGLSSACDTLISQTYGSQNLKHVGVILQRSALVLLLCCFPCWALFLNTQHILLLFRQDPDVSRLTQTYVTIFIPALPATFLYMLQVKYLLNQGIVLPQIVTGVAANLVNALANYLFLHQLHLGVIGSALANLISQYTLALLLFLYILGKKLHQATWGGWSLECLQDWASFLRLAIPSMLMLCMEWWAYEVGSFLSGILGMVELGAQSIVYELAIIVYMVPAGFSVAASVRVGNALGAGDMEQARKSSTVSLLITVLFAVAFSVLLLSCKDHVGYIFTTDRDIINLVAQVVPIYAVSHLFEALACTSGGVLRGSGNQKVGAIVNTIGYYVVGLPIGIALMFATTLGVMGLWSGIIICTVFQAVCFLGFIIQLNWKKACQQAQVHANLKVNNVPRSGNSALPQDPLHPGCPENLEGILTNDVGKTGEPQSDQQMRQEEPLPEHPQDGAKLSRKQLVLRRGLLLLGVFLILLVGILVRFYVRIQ

[5] = target: T2, OCT2 (SLC22A2); assay: Cellular uptake into OCT2-overexpressing HEK293 cells vs EV control cells (HPLC-MS/MS); details: for K m (±SEM) / v max (±SEM): OCT2, net uptake, Michaelis–Menten
[6] = target: T4, OCT3 (SLC22A3) (Homo sapiens, UniProt O75751); assay: Cellular uptake into OCT3-overexpressing HEK293 cells vs EV control cells (HPLC-MS/MS); details: label = favoured enantiomer
T4 sequence (O75751 1-556): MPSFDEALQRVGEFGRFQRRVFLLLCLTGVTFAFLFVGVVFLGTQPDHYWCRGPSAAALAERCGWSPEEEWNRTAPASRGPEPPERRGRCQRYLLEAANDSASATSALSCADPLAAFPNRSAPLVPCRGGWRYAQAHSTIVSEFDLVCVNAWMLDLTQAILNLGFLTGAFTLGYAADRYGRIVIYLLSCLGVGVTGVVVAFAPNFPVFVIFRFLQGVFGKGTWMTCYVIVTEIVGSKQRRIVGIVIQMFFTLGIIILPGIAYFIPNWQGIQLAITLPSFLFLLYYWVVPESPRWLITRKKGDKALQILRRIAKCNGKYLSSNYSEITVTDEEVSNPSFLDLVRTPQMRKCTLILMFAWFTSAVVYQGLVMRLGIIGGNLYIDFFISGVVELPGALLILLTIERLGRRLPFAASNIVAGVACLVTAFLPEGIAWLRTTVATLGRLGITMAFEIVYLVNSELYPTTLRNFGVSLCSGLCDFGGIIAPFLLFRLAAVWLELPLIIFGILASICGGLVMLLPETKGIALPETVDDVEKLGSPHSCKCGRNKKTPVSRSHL

Sequence of MATE2-K (SLC47A2) (Q86VL8 1-566 isoform Q86VL8-3): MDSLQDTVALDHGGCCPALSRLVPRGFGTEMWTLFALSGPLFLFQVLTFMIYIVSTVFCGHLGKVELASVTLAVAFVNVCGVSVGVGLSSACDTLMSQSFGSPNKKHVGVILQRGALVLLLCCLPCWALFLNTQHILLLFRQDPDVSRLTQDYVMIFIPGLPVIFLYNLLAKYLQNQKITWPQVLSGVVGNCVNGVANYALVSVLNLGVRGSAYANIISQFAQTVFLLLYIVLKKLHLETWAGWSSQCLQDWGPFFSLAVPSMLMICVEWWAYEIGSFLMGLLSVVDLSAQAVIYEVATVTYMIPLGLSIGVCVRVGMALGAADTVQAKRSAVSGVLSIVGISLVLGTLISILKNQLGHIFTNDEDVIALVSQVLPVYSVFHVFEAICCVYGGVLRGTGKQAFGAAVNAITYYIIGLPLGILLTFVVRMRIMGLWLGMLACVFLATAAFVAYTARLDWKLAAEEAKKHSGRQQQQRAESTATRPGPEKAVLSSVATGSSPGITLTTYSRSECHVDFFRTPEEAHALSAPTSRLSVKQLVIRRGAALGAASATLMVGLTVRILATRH

| Structure (SMILES) | K m (±SEM) [5] | v max (±SEM) [5] | higher v max of one enantiomer over the other, OCT2 ([5]; label = enantiomer with higher v max) | stereoselectivity OCT3 (uptake ratio of the more strongly transported enantiomer divided by that of the other) [6] | selectivity ratio at 2 min [1] | selectivity ratio at 1 min [2] | selectivity ratio at 2 min [3] | selectivity ratio at 1 min [4] |
| --- | --- | --- | --- | --- | --- | --- | --- | --- |
| C[C@@H](N)CCO [(R)-3-aminobutan-1-ol] |  |  |  |  | 1.1 | 1.4 | 2.7 | 1.9 |
| CC(C)C[C@@H](N)CO [(R)-(−)-leucinol] |  |  |  | 1.4-fold for (R) |  |  |  | 1.1 |
| CC(C)(C)[C@@H](N)CO [(R)-(−)-tert-leucinol] |  |  |  |  |  | 1.5 |  | 1.3 |

Further lines, with some results ahead:

| K m (±SEM) [5] | v max (±SEM) [5] | higher v max of one enantiomer over the other, OCT2 ([5]; label = enantiomer with higher v max) | stereoselectivity OCT3 (uptake ratio of the more strongly transported enantiomer divided by that of the other) [6] | Structure (SMILES) | selectivity ratio at 2 min [1] | selectivity ratio at 1 min [2] | selectivity ratio at 2 min [3] | selectivity ratio at 1 min [4] |
| --- | --- | --- | --- | --- | --- | --- | --- | --- |
| 59 (±11) μM | 1342 (±84) ^b pmol/mg protein/min | 1.7 fold |  | CCCC[C@@H](N)CO [(R)-(−)-2-amino-1-hexanol] | 1.1 | 1.3 |  | 1.2 |
| 198 (±67) μM | 1453 (±179) ^a pmol/mg protein/min |  |  | CCC[C@@H](N)CO [(R)-(−)-2-amino-1-pentanol] | 1.1 | 1.2 |  | 1.5 |
